Reference: patent US10131652B2, “Pyrimidinyloxy benzene derivatives as herbicides” (E. I. DU PONT DE NEMOURS AND COMPANY, priority 2014, dated 2018)
Read-outs that look alike come from different tables or passages of the source.

Tests used:
Test in all cases: Test E pre-/postemergence plant response
Type in all cases: in vivo
[1] = system: blackgrass (Alopecurus myosuroides); conditions: scale 0 to 100, read-out: Plant response rating, Blackgrass; for pest or weed control at 16 g/ha: 16 g ai/ha; for pest or weed control at 31 g/ha: 31 g ai/ha; for pest or weed control at 62 g/ha: 62 g ai/ha; for pest or weed control at 125 g/ha: 125 g ai/ha
Procedure, shortened: (§1)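 Visual scores on a 0–100 scale (100 = complete control) were assigned against untreated controls 7–21 days after treatment in a controlled environment. Compounds, formulated with solvent plus surfactant, were applied to pre-emergence silt-loam sowings or to 1- to 4-leaf plants (2–18 cm) in potting medium.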

[2] = system: canarygrass (Phalaris minor); conditions: scale 0 to 100, read-out: Plant response rating, Canarygrass; for pest or weed control at 16 g/ha: 16 g ai/ha; for pest or weed control at 31 g/ha: 31 g ai/ha; for pest or weed control at 62 g/ha: 62 g ai/ha; for pest or weed control at 125 g/ha: 125 g ai/ha
Procedure, shortened: as §1

[3] = system: deadnettle (henbit deadnettle, Lamium amplexicaule); conditions: scale 0 to 100, read-out: Plant response rating, Deadnettle; for pest or weed control at 16 g/ha: 16 g ai/ha; for pest or weed control at 31 g/ha: 31 g ai/ha; for pest or weed control at 62 g/ha: 62 g ai/ha; for pest or weed control at 125 g/ha: 125 g ai/ha
Procedure, shortened: as §1

[4] = system: field poppy (Papaver rhoeas); conditions: scale 0 to 100, read-out: Plant response rating, Field Poppy; for pest or weed control at 16 g/ha: 16 g ai/ha; for pest or weed control at 31 g/ha: 31 g ai/ha; for pest or weed control at 62 g/ha: 62 g ai/ha; for pest or weed control at 125 g/ha: 125 g ai/ha
Procedure, shortened: as §1

[5] = system: field violet (Viola arvensis); conditions: scale 0 to 100, read-out: Plant response rating, Field Violet; for pest or weed control at 16 g/ha: 16 g ai/ha; for pest or weed control at 31 g/ha: 31 g ai/ha; for pest or weed control at 62 g/ha: 62 g ai/ha; for pest or weed control at 125 g/ha: 125 g ai/ha
Procedure, shortened: as §1

[6] = system: lambsquarters (Chenopodium album); conditions: scale 0 to 100, read-out: Plant response rating, Lambsquarters; for pest or weed control at 16 g/ha: 16 g ai/ha; for pest or weed control at 31 g/ha: 31 g ai/ha; for pest or weed control at 62 g/ha: 62 g ai/ha; for pest or weed control at 125 g/ha: 125 g ai/ha
Procedure, shortened: as §1

[7] = system: speedwell (bird's-eye speedwell, Veronica persica); conditions: scale 0 to 100, read-out: Plant response rating, Speedwell; for pest or weed control at 16 g/ha: 16 g ai/ha; for pest or weed control at 62 g/ha: 62 g ai/ha; for pest or weed control at 125 g/ha: 125 g ai/ha
Procedure, shortened: as §1

[8] = system: spring barley (Hordeum vulgare); conditions: post-emergence, Postemergence
Procedure, shortened: as §1

[9] = system: spring wheat (Triticum aestivum); conditions: post-emergence, Postemergence, scale 0 to 100, read-out: Plant response rating, Wheat, Spring
Procedure, shortened: as §1

wild oat (Avena fatua) = conditions: scale 0 to 100, read-out: Plant response rating, Oat, Wild; for pest or weed control at 16 g/ha: 16 g ai/ha; for pest or weed control at 31 g/ha: 31 g ai/ha; for pest or weed control at 62 g/ha: 62 g ai/ha; for pest or weed control at 125 g/ha: 125 g ai/ha
Procedure, shortened: as §1

[10] = system: winter wheat (Triticum aestivum); conditions: post-emergence, Postemergence, scale 0 to 100, read-out: Plant response rating, Wheat, Winter
Procedure, shortened: as §1

FC(F)c1cc(-c2ccccc2Oc2ncc(Cl)cn2)no1 [Compound 35, 5-chloro-2-[2-[5-(difluoromethyl)-3-isoxazolyl]phenoxy]pyrimidine]
pest or weed control at 16 g/ha ([1]; post-emergence, Postemergence): 20%
pest or weed control at 31 g/ha ([1]; post-emergence, Postemergence): 35%
pest or weed control at 62 g/ha ([1]; post-emergence, Postemergence): 55%
pest or weed control at 125 g/ha ([1]; post-emergence, Postemergence): 60%
pest or weed control at 16 g/ha ([1]; pre-emergence, Preemergence): 30%
pest or weed control at 31 g/ha ([1]; pre-emergence, Preemergence): 60%
pest or weed control at 62 g/ha ([1]; pre-emergence, Preemergence): 65%
pest or weed control at 125 g/ha ([1]; pre-emergence, Preemergence): 95%
pest or weed control at 16 g/ha ([2]; post-emergence, Postemergence): 10%
pest or weed control at 31 g/ha ([2]; post-emergence, Postemergence): 25%
pest or weed control at 62 g/ha ([2]; post-emergence, Postemergence): 55%
pest or weed control at 125 g/ha ([2]; post-emergence, Postemergence): 60%
pest or weed control at 16 g/ha ([2]; pre-emergence, Preemergence): 40%
pest or weed control at 31 g/ha ([2]; pre-emergence, Preemergence): 55%
pest or weed control at 62 g/ha ([2]; pre-emergence, Preemergence): 95%
pest or weed control at 125 g/ha ([2]; pre-emergence, Preemergence): 100%
pest or weed control at 16 g/ha ([3]; post-emergence, Postemergence): 40%
pest or weed control at 31 g/ha ([3]; post-emergence, Postemergence): 60%
pest or weed control at 62 g/ha ([3]; post-emergence, Postemergence): 70%
pest or weed control at 125 g/ha ([3]; post-emergence, Postemergence): 80%
pest or weed control at 16 g/ha ([3]; pre-emergence, Preemergence): 35%
pest or weed control at 31 g/ha ([3]; pre-emergence, Preemergence): 80%
pest or weed control at 62 g/ha ([3]; pre-emergence, Preemergence): 95%
pest or weed control at 125 g/ha ([3]; pre-emergence, Preemergence): 95%
pest or weed control at 16 g/ha ([4]; post-emergence, Postemergence): 70%
pest or weed control at 31 g/ha ([4]; post-emergence, Postemergence): 75%
pest or weed control at 62 g/ha ([4]; post-emergence, Postemergence): 80%
pest or weed control at 125 g/ha ([4]; post-emergence, Postemergence): 100%
pest or weed control at 16 g/ha ([4]; pre-emergence, Preemergence): 75%
pest or weed control at 31 g/ha ([4]; pre-emergence, Preemergence): 80%
pest or weed control at 62 g/ha ([4]; pre-emergence, Preemergence): 90%
pest or weed control at 125 g/ha ([4]; pre-emergence, Preemergence): 90%
pest or weed control at 16 g/ha ([5]; post-emergence, Postemergence): 60%
pest or weed control at 31 g/ha ([5]; post-emergence, Postemergence): 65%
pest or weed control at 62 g/ha ([5]; post-emergence, Postemergence): 75%
pest or weed control at 125 g/ha ([5]; post-emergence, Postemergence): 75%
pest or weed control at 16 g/ha ([5]; pre-emergence, Preemergence): 15%
pest or weed control at 31 g/ha ([5]; pre-emergence, Preemergence): 70%
pest or weed control at 62 g/ha ([5]; pre-emergence, Preemergence): 90%
pest or weed control at 125 g/ha ([5]; pre-emergence, Preemergence): 100%
pest or weed control at 16 g/ha ([6]; post-emergence, Postemergence): 80%
pest or weed control at 31 g/ha ([6]; post-emergence, Postemergence): 80%
pest or weed control at 62 g/ha ([6]; post-emergence, Postemergence): 85%
pest or weed control at 125 g/ha ([6]; post-emergence, Postemergence): 90%
pest or weed control at 16 g/ha ([6]; pre-emergence, Preemergence): 65%
pest or weed control at 31 g/ha ([6]; pre-emergence, Preemergence): 85%
pest or weed control at 62 g/ha ([6]; pre-emergence, Preemergence): 90%
pest or weed control at 125 g/ha ([6]; pre-emergence, Preemergence): 100%
pest or weed control at 16 g/ha ([7]; post-emergence, Postemergence): 75%
pest or weed control at 31 g/ha ([7]; post-emergence, 31 g ai/ha, Postemergence): 100%
pest or weed control at 62 g/ha ([7]; post-emergence, Postemergence): 100%
pest or weed control at 125 g/ha ([7]; post-emergence, Postemergence): 100%
pest or weed control at 16 g/ha ([7]; pre-emergence, Preemergence): 100%
pest or weed control at 62 g/ha ([7]; pre-emergence, Preemergence): 100%
pest or weed control at 125 g/ha ([7]; pre-emergence, Preemergence): 100%
plant injury at 16 g/ha ([8]; 16 g ai/ha, scale 0 to 100, read-out: Plant response rating, Barley, Spring): 5%
plant injury at 31 g/ha ([8]; 31 g ai/ha, scale 0 to 100, read-out: Plant response rating, Barley, Spring): 5%
plant injury at 62 g/ha ([8]; 62 g ai/ha, scale 0 to 100, read-out: Plant response rating, Barley, Spring): 10%
plant injury at 125 g/ha ([8]; 125 g ai/ha, scale 0 to 100 (0 no effect, 100 complete control), read-out: Plant response rating, Barley, Spring): 25%
plant injury at 16 g/ha ([9]; 16 g ai/ha): 0%
plant injury at 31 g/ha ([9]; 31 g ai/ha): 10%
plant injury at 62 g/ha ([9]; 62 g ai/ha): 25%
plant injury at 125 g/ha ([9]; 125 g ai/ha): 40%
pest or weed control at 16 g/ha (wild oat (Avena fatua); post-emergence, Postemergence): 10%
pest or weed control at 31 g/ha (wild oat (Avena fatua); post-emergence, Postemergence): 15%
pest or weed control at 62 g/ha (wild oat (Avena fatua); post-emergence, Postemergence): 35%
pest or weed control at 125 g/ha (wild oat (Avena fatua); post-emergence, Postemergence): 60%
pest or weed control at 16 g/ha (wild oat (Avena fatua); pre-emergence, Preemergence): 0%
pest or weed control at 31 g/ha (wild oat (Avena fatua); pre-emergence, Preemergence): 0%
pest or weed control at 62 g/ha (wild oat (Avena fatua); pre-emergence, Preemergence): 45%
pest or weed control at 125 g/ha (wild oat (Avena fatua); pre-emergence, Preemergence): 35%
plant injury at 16 g/ha ([10]; 16 g ai/ha): 5%
plant injury at 31 g/ha ([10]; 31 g ai/ha): 15%
plant injury at 62 g/ha ([10]; 62 g ai/ha): 25%
plant injury at 125 g/ha ([10]; 125 g ai/ha): 40%
